Experimental data from the NIST ThermoML archive (doi:10.1016/j.tca.2006.05.019).
Where “and” joins values, the source holds several entries; their conditions need not be identical. Equal entries are not always repeated.

Test: molar heat capacity at constant pressure
Conditions: 101.33 kPa, Crystal, Vacuum adiabatic calorimetry

O=P([O-])([O-])[O-].[Lu+3] [lutetium phosphate]
Conditions | molar heat capacity at constant pressure
6 K | 0.0357 J/K/mol
6.51 K | 0.0482 J/K/mol
7.08 K | 0.04711 J/K/mol
7.62 K | 0.06861 J/K/mol
8 K | 0.0845 J/K/mol
8.12 K | 0.1033 J/K/mol
8.6 K | 0.1229 J/K/mol
9.16 K | 0.1232 J/K/mol
9.76 K | 0.1438 J/K/mol
10 K | 0.165 J/K/mol
10.35 K | 0.1797 J/K/mol
10.95 K | 0.1984 J/K/mol
11.52 K | 0.2437 J/K/mol
12 K | 0.286 J/K/mol
12.05 K | 0.2931 J/K/mol
12.7 K | 0.351 J/K/mol
13.5 K | 0.4239 J/K/mol
14 K | 0.455 J/K/mol
14.29 K | 0.5003 J/K/mol
15.07 K | 0.5881 J/K/mol
15.96 K | 0.7241 J/K/mol
16 K | 0.676 J/K/mol
16.71 K | 0.8304 J/K/mol
17.45 K | 0.9728 J/K/mol
18 K | 0.962 J/K/mol
18.21 K | 1.085 J/K/mol
18.94 K | 1.201 J/K/mol
19.66 K | 1.318 J/K/mol
20 K | 1.32 J/K/mol
21.37 K | 1.733 J/K/mol
23.76 K | 2.354 J/K/mol
25 K | 2.54 J/K/mol
26.16 K | 3.067 J/K/mol
28.57 K | 3.861 J/K/mol
30 K | 4.26 J/K/mol
30.99 K | 4.819 J/K/mol
33.41 K | 5.784 J/K/mol
35 K | 6.39 J/K/mol
35.85 K | 6.862 J/K/mol
38.3 K | 7.989 J/K/mol
40 K | 8.83 J/K/mol
40.76 K | 9.131 J/K/mol
43.21 K | 10.48 J/K/mol
45 K | 11.45 J/K/mol
45.69 K | 11.91 J/K/mol
48.16 K | 13.16 J/K/mol
50 K | 14.18 J/K/mol
50.64 K | 14.44 J/K/mol
53.13 K | 15.87 J/K/mol
55 K | 16.93 J/K/mol
55.63 K | 17.16 J/K/mol
58.13 K | 18.55 J/K/mol
60 K | 19.67 J/K/mol
60.65 K | 19.95 J/K/mol
63.14 K | 21.38 J/K/mol
65 K | 22.38 J/K/mol
65.64 K | 22.73 J/K/mol
68.13 K | 23.87 J/K/mol
70 K | 25.05 J/K/mol
70.62 K | 25.39 J/K/mol
73.11 K | 26.96 J/K/mol
75 K | 27.68 J/K/mol
75.6 K | 28.21 J/K/mol
78.1 K | 29.35 J/K/mol
80 K | 30.26 J/K/mol
80.6 K | 30.69 J/K/mol
83.1 K | 31.8 J/K/mol
83.67 K | 31.97 J/K/mol
85 K | 32.8 J/K/mol
87.39 K | 33.75 J/K/mol
90 K | 35.28 J/K/mol
91 K | 35.61 J/K/mol
94.62 K | 37.52 J/K/mol
95 K | 37.72 J/K/mol
98.23 K | 39.26 J/K/mol
100 K | 40.1 J/K/mol
101.84 K | 41.01 J/K/mol
105.45 K | 42.73 J/K/mol
109.04 K | 44.39 J/K/mol
110 K | 44.74 J/K/mol
112.63 K | 45.93 J/K/mol
116.21 K | 47.44 J/K/mol
119.79 K | 49.06 J/K/mol
120 K | 49.17 J/K/mol
123.37 K | 50.6 J/K/mol
126.95 K | 52.07 J/K/mol
130 K | 53.39 J/K/mol
130.52 K | 53.52 J/K/mol
134.08 K | 54.89 J/K/mol
134.32 K | 54.86 J/K/mol
137.64 K | 56.24 J/K/mol
137.89 K | 56.62 J/K/mol
140 K | 57.42 J/K/mol
141.14 K | 57.72 J/K/mol
144.67 K | 59.01 J/K/mol
148.2 K | 60.39 J/K/mol
150 K | 61.25 J/K/mol
151.73 K | 61.98 J/K/mol
152.2 K | 62.31 J/K/mol
155.77 K | 63.71 J/K/mol
159.34 K | 65.02 J/K/mol
160 K | 64.87 J/K/mol
162.89 K | 66.21 J/K/mol
166.44 K | 67.34 J/K/mol
169.99 K | 68.5 J/K/mol
170 K | 68.32 J/K/mol
173.53 K | 69.66 J/K/mol
177.02 K | 70.76 J/K/mol
180 K | 71.58 J/K/mol
180.54 K | 71.85 J/K/mol
184.06 K | 72.87 J/K/mol
187.57 K | 73.85 J/K/mol
190 K | 74.68 J/K/mol
191.08 K | 75.02 J/K/mol
194.58 K | 76.04 J/K/mol
198.07 K | 77.09 J/K/mol
200 K | 77.61 J/K/mol
201.56 K | 78.14 J/K/mol
205.03 K | 78.99 J/K/mol
208.5 K | 79.97 J/K/mol
210 K | 80.41 J/K/mol
211.96 K | 80.72 J/K/mol
215.42 K | 81.51 J/K/mol
218.87 K | 82.45 J/K/mol
220 K | 83.06 J/K/mol
222.31 K | 83.48 J/K/mol
225.73 K | 84.25 J/K/mol
229.14 K | 85.1 J/K/mol
230 K | 85.6 J/K/mol
233.68 K | 86.38 J/K/mol
235.82 K | 87.08 J/K/mol
237.13 K | 87.2 J/K/mol
239.2 K | 87.62 J/K/mol
240 K | 88.01 J/K/mol
242.56 K | 88.31 J/K/mol
245.94 K | 89.1 J/K/mol
249.32 K | 90.16 J/K/mol
250 K | 90.31 J/K/mol
250.77 K | 90.59 J/K/mol
254.14 K | 91.42 J/K/mol
255.94 K | 91.8 J/K/mol
259.22 K | 92.4 J/K/mol
260 K | 92.51 J/K/mol
260.67 K | 92.92 J/K/mol
263.97 K | 93.72 J/K/mol
267.27 K | 94.37 J/K/mol
270 K | 94.6 J/K/mol
270.55 K | 94.95 J/K/mol
273.81 K | 95.59 J/K/mol
277.04 K | 96.19 J/K/mol
278.55 K | 96.28 J/K/mol and 96.26 J/K/mol
280 K | 96.61 J/K/mol
280.25 K | 96.75 J/K/mol
281.69 K | 96.92 J/K/mol and 96.9 J/K/mol
283.44 K | 97.38 J/K/mol
284.59 K | 97.37 J/K/mol
286.58 K | 97.91 J/K/mol
287.72 K | 97.96 J/K/mol
289.7 K | 98.45 J/K/mol
290 K | 98.53 J/K/mol
290.83 K | 98.55 J/K/mol
292.79 K | 99.14 J/K/mol
293.91 K | 99.28 J/K/mol
295.89 K | 99.69 J/K/mol
296.98 K | 99.82 J/K/mol
298.92 K | 100.3 J/K/mol
300 K | 100.4 J/K/mol
300.03 K | 100.5 J/K/mol
303.01 K | 100.9 J/K/mol
306.01 K | 101.4 J/K/mol
309.71 K | 101.9 J/K/mol
310 K | 102.1 J/K/mol
312.4 K | 102.4 J/K/mol
315.23 K | 102.9 J/K/mol
318.03 K | 103.6 J/K/mol
320 K | 103.8 J/K/mol
